Data taken from patent US20230356105A1, “TETRAAZADODECANE BASED CHELATING AGENTS FOR SEPARATION OF RARE EARTH ELEMENTS AND METHOD THEREFOR” (Ustav Organicke Chemie a Biochemie AV CR V.V.I., priority 2020, published 2023).
Values joined by “and” are separate entries in the source; they are usually repeats but may differ in a detail not shown here. Equal entries are not always repeated.

Legend:
[1] = Removal of additive from remaining solution after precipitation by ultrafiltration (Example 25); format: physicochemical; conditions: Ln chelates of L5
[2] = Separation of Nd/Pr/Tb/Dy mixture by repeated precipitation using L5 and α-HIBA (Example 24); format: physicochemical
Protocol: The reaction mixture was prepared by pipetting the following aqueous stock solutions into a 20 mL glass vial: • 1. 476 μL 246 mM aqueous chelator L5 • 2. 606 μL 175.5 mM aqueous LnCl3 solution (from a stock solution containing a mixture of Ln =Nd, Pr, Tb, and Dy, in a ratio of 3.3:1:1:1, Nd:Pr:Tb:Dy) • 3. 41.6 μL 2560 mM aqueous α-HIBA pH=6.5 • 4. 4103 μL water • 5. 1733 μL 3.0 M MOPS pH=7
The total reaction volume was 7.0 mL. Three identical reaction mixtures were prepared. A PTFE-coated stir bar was added to each vial; the vials were capped and stirred on a magnetic stirrer at room temperature. After 18 hours, a 200 μL aliquot of the reaction mixture was taken from each vial. This was centrifuged in a 2 mL plastic Eppendorf centrifuge tube, and the supernatant was carefully pipetted from the sample and transferred to a new set of tubes. The precipitate was dissolved by addition of 200 μL 1 M HCl, and the absolute concentration of each of the four lanthanides (Nd, Pr, Tb, and Dy) in each sample of the supernatant and precipitate was determined by ICP-OES. The remaining reaction mixtures from each vial were individually centrifuged in 15 mL plastic centrifuge tubes to separate the precipitate from the supernatant. The supernatant was discarded. Each precipitate was dissolved by addition of 2 mL 1 M HCl and heating to 80° C. for 1 hour. After dissolution, the acidic solutions were transferred to clean 20 mL glass vials with one PTFE-coated magnetic stir bar each. To each solution was added, in order: 2037 μL water, 40.4 μL 2560 mM aqueous α-HIBA pH =6.5, 1723 μL 3 M aqueous MOPS pH=7, and 1000 μL 2 M NaOH. These solutions were capped and stirred on a magnetic stirrer at room temperature. After 18 hours, a 200 μL aliquot of the reaction mixture was again taken from each and treated for ICP-OES analysis as before. Once again, the remaining reaction mixtures from each vial were individually centrifuged in 15 mL plastic centrifuge tubes to separate the precipitate from the supernatant. The supernatant was discarded. Each precipitate was dissolved by addition of 1 mL 1M HCl and heating to 80° C. for 1 hour. After dissolution, the acidic solutions were transferred to clean 20 mL glass vials with one PTFE-coated magnetic stir bar each. To each solution was added, in order: 3376 μL water, 51.6 μL 2560 mM aqueous α-HIBA pH =6.5, 1672 μL 3 M aqueous MOPS pH=7, and 500 μL 2 M NaOH. These solutions were capped and stirred on a magnetic stirrer at room temperature. After 18 hours, a final 200 μL aliquot of the reaction mixture was again taken from each vial and treated for ICP-OES analysis as before.

[3] = series A (first precipitation, 18 hours), individual samples A1-A3
[4] = series B (repeated precipitation), individual samples B1-B3
[5] = series C (repeated precipitation), individual samples C1-C3

O=C(O)CN1CCN(CC(=O)O)CCN(Cc2cccc3ccccc23)CCN(CC(=O)O)CC1 [L5, 2,2′,2″-(10-(naphthalene-1-ylmethyl)-1,4,7,10-tetraazacyklododekane-1,4,7-triyl)triacetic acid]
% of initial [chelate] in filtrate ([1]; additive acetate 76 mM): 0.8%
% of initial [chelate] in filtrate ([1]; additive benzoic acid 76 mM): 0.3%
% of initial [chelate] in filtrate ([1]; additive α-HIBA 30.4 mM): 0.4%
avg composition of precipitate, Dy ([2]; series A): 6.3%
avg composition of precipitate, Nd ([2]; series A): 67.2%
avg composition of precipitate, Pr ([2]; series A): 18.2%
avg composition of precipitate, Tb ([2]; series A): 8.2%
avg composition of supernatant, Dy ([2]; series A): 43.8%
avg composition of supernatant, Nd ([2]; series A): 21.4%
avg composition of supernatant, Pr ([2]; series A): 3.2%
avg composition of supernatant, Tb ([2]; series A): 31.6%
precipitate concentration Dy [2, 3]: 0.81 mM and 0.82 mM (2×)
precipitate concentration Nd [2, 3]: 8.82 mM and 8.69 mM and 8.55 mM
precipitate concentration Pr [2, 3]: 2.39 mM and 2.35 mM and 2.32 mM
precipitate concentration Tb [2, 3]: 1.05 mM and 1.07 mM and 1.06 mM
supernatant concentration Dy [2, 3]: 1.69 mM and 1.65 mM and 1.68 mM
supernatant concentration Nd [2, 3]: 0.85 mM and 0.90 mM and 0.70 mM
supernatant concentration Pr [2, 3]: 0.12 mM and 0.15 mM and 0.09 mM
supernatant concentration Tb [2, 3]: 1.23 mM and 1.19 mM and 1.20 mM
precipitate concentration Dy, avg ([2]; series A avg): 0.81 mM
precipitate concentration Nd, avg ([2]; series A avg): 8.68 mM
precipitate concentration Pr, avg ([2]; series A avg): 2.35 mM
precipitate concentration Tb, avg ([2]; series A avg): 1.06 mM
supernatant concentration Dy, avg ([2]; series A avg): 1.67 mM
supernatant concentration Nd, avg ([2]; series A avg): 0.82 mM
supernatant concentration Pr, avg ([2]; series A avg): 0.12 mM
supernatant concentration Tb, avg ([2]; series A avg): 1.21 mM
avg composition of precipitate, Dy ([2]; series B): 2.0%
avg composition of precipitate, Nd ([2]; series B): 73.4%
avg composition of precipitate, Pr ([2]; series B): 20.6%
avg composition of precipitate, Tb ([2]; series B): 4.0%
avg composition of supernatant, Dy ([2]; series B): 28.7%
avg composition of supernatant, Nd ([2]; series B): 34.0%
avg composition of supernatant, Pr ([2]; series B): 3.1%
avg composition of supernatant, Tb ([2]; series B): 34.1%
precipitate concentration Dy [2, 4]: 0.20 mM and 0.21 mM and 0.22 mM
precipitate concentration Nd [2, 4]: 7.54 mM and 7.82 mM and 8.02 mM
precipitate concentration Pr [2, 4]: 2.11 mM and 2.20 mM and 2.24 mM
precipitate concentration Tb [2, 4]: 0.41 mM and 0.42 mM and 0.45 mM
supernatant concentration Dy [2, 4]: 0.50 mM and 0.52 mM and 0.54 mM
supernatant concentration Nd [2, 4]: 0.65 mM and 0.60 mM and 0.59 mM
supernatant concentration Pr [2, 4]: 0.06 mM and 0.05 mM (2×)
supernatant concentration Tb [2, 4]: 0.60 mM and 0.61 mM and 0.64 mM
precipitate concentration Dy, avg ([2]; series B avg): 0.21 mM
precipitate concentration Nd, avg ([2]; series B avg): 7.80 mM
precipitate concentration Pr, avg ([2]; series B avg): 2.18 mM
precipitate concentration Tb, avg ([2]; series B avg): 0.42 mM
supernatant concentration Dy, avg ([2]; series B avg): 0.52 mM
supernatant concentration Nd, avg ([2]; series B avg): 0.61 mM
supernatant concentration Pr, avg ([2]; series B avg): 0.06 mM
supernatant concentration Tb, avg ([2]; series B avg): 0.62 mM
avg composition of precipitate, Dy ([2]; series C): 0.5%
avg composition of precipitate, Nd ([2]; series C): 75.6%
avg composition of precipitate, Pr ([2]; series C): 22.1%
avg composition of precipitate, Tb ([2]; series C): 1.8%
avg composition of supernatant, Dy ([2]; series C): 10.4%
avg composition of supernatant, Nd ([2]; series C): 61.4%
avg composition of supernatant, Pr ([2]; series C): 6.5%
avg composition of supernatant, Tb ([2]; series C): 21.6%
precipitate concentration Dy [2, 5]: 0.03 mM and 0.04 mM (2×)
precipitate concentration Nd [2, 5]: 6.34 mM and 6.40 mM and 6.17 mM
precipitate concentration Pr [2, 5]: 1.85 mM and 1.87 mM and 1.80 mM
precipitate concentration Tb [2, 5]: 0.15 mM (2×) and 0.16 mM
supernatant concentration Dy [2, 5]: 0.12 mM (2×) and 0.13 mM
supernatant concentration Nd [2, 5]: 0.67 mM and 0.68 mM and 0.83 mM
supernatant concentration Pr [2, 5]: 0.07 mM (2×) and 0.10 mM
supernatant concentration Tb [2, 5]: 0.24 mM and 0.25 mM and 0.27 mM
precipitate concentration Dy, avg ([2]; series C avg): 0.04 mM
precipitate concentration Nd, avg ([2]; series C avg): 6.30 mM
precipitate concentration Pr, avg ([2]; series C avg): 1.84 mM
precipitate concentration Tb, avg ([2]; series C avg): 0.15 mM
supernatant concentration Dy, avg ([2]; series C avg): 0.12 mM
supernatant concentration Nd, avg ([2]; series C avg): 0.73 mM
supernatant concentration Pr, avg ([2]; series C avg): 0.08 mM
supernatant concentration Tb, avg ([2]; series C avg): 0.26 mM
